The text below walks through data of ChEMBL document CHEMBL5223162, “Discovery of Pyrazolopyridine Derivatives as HPK1 Inhibitors” (ACS Med Chem Lett, 2023).

Where only a bound is given, the exact number is not on record here.

Data set [1] concerns the target T1, Mitogen-activated protein kinase kinase kinase kinase 1 (Homo sapiens, UniProt Q92918). The data set can be described thus: Binding affinity to recombinant human HPK1 (1 to 346 residues) expressed sf9 cells incubated for 1 hr by LanthaScreen assay.
The target in data set [2] is T1, Mitogen-activated protein kinase kinase kinase kinase 1. The data set can be described thus: Inhibition of human HPK1 in human Jurkat cells assessed as reduction in SLP76 phosphorylation incubated for 1 hr by HTRF assay. It is filed as cell-based. In general terms: Time-resolved FRET reads energy transfer from a long-lived donor to a nearby acceptor.
Data set [3] in a line: Intrinsic clearance in human liver microsomes at 1 uM and measured upto 30 mins in presence of NADPH by LC-MS analysis. In kind it is ADME, Microsome. The note with it: read-out: CLH (converted).
Data set [4] is described as follows: AUC in cynomolgus monkey at 3 mg/kg, po and measured upto 24 hrs by LC-MS/MS analysis. The arrangement: dose 3 mg/kg, time < 24 hrs, route po. It is filed as ADME, organism-based, Macaca fascicularis. Particulars: in vivo.
Data set [5] in a line: Volume of distribution at steady state in cynomolgus monkey at 1 mg/kg, iv and measured upto 24 hrs by LC-MS/MS analysis. In kind it is ADME, organism-based, Macaca fascicularis. The note with it: in vivo.
Data set [6] is described as follows: Half life in cynomolgus monkey at 1 mg/kg, iv and measured upto 24 hrs by LC-MS/MS analysis. In kind it is ADME, organism-based, Macaca fascicularis. Particulars: in vivo.
Data set [7] in a line: Clearance in cynomolgus monkey at 1 mg/kg, iv and measured upto 24 hrs by LC-MS/MS analysis. In kind it is ADME, organism-based, Macaca fascicularis. The note with it: in vivo.
The nature of data set [8]: AUC in Sprague-Dawley rat at 3 mg/kg, po and measured upto 24 hrs by LC-MS/MS analysis. In kind it is ADME, organism-based. Set-up: dose 3 mg/kg, time < 24 hrs, route po. Particulars: in vivo.
The nature of data set [9]: Clearance in Sprague-Dawley rat at 1.5 mg/kg, iv and measured upto 24 hrs by LC-MS/MS analysis. In kind it is ADME, organism-based. The note with it: in vivo.
Data set [10] in a line: Fraction unbound in human plasma by LC-MS/MS analysis. It is filed as ADME, cell-free.
Data set [11] is described as follows: Permeability across apical to basolateral side in human Caco2 cells at 50 uM and measured after 120 mins by LC-MS analysis. It is filed as ADME, cell-based. Particulars: Caco-2, read-out: permeability. (Caco-2 cells form a polarised layer with tight junctions and transporters.)
Data set [12] can be described thus: Oral bioavailability in cynomolgus monkey at 3 mg/kg and measured upto 24 hrs by LC-MS/MS analysis. The note with it: in vivo. In kind it is ADME, organism-based, Macaca fascicularis.

T1 sequence (Q92918 whole entry, the tested form may be a part): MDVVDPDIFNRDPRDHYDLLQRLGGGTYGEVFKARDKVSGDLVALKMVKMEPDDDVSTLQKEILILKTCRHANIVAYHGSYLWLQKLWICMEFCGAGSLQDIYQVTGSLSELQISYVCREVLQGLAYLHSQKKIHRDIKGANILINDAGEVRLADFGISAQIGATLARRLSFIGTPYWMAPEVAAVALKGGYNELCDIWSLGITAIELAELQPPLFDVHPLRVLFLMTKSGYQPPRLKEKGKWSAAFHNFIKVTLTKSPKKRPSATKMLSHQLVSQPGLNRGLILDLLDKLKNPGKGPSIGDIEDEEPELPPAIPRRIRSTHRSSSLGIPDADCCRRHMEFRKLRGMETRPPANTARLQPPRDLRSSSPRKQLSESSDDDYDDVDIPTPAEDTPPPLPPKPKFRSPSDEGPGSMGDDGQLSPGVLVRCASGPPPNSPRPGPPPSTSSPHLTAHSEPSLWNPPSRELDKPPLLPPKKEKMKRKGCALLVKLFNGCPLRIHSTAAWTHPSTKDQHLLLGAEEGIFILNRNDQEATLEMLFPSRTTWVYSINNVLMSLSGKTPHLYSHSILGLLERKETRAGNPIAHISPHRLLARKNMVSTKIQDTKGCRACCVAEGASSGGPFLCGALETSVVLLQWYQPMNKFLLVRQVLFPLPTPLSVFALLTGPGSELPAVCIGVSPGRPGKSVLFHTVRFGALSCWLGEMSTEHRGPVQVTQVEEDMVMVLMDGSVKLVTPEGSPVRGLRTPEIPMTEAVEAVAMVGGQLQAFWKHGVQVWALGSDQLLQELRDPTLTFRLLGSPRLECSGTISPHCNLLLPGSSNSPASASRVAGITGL

For orientation: Ki means a dissociation constant, usually derived from enzyme kinetics or from competition with a known ligand. For `CN1CCN(c2ccc(-c3n[nH]c4ccc(-c5ccccc5)nc34)cc2)CC1`, the Ki in [1] was found to be 223 nM.
Still for that read-out and setting: the result for `CN1CCN(c2ccc(Nc3ncc4ccc(-c5ccccc5)cc4n3)cc2)CC1` reads 492 nM.
On the same count and under the same terms, the value for `CN1CCN(c2ccc(-c3n[nH]c4cc(-c5ccccc5)cnc34)cc2)CC1` was 1150 nM.
Still for that read-out and setting: the value for `COc1cc(OC)c(F)c(-c2ncc3c(-c4ccc(N5CCN(C)CC5)cc4)n[nH]c3n2)c1F` was 91 nM.
One may read the IC50 as the concentration that inhibits the measured activity by half. For `CN1CCN(c2ccc(-c3n[nH]c4ccc(-c5ccccc5F)nc34)cc2)CC1`, the Ki in data set [1] stood at 28 nM. Moreover, the IC50 in [2] stood at 2740 nM.
For `COc1cccc(F)c1-c1cc2c(-c3cnn(C)c3)n[nH]c2cn1`, the Ki in [1] was 2 nM. In data set [2], the IC50 was 148 nM. Also, the CLint scaled at 1 µM in data set [3] was 13.3 mL/min/kg.
What is called AUC is concentration integrated over time. As usually defined, the Vdss is a proportionality between amount in the body and measured concentration, not a real space. In general, half-life refers to the time in which the quantity being followed falls by half. Broadly, the clearance is the volume of plasma or blood freed of the substance per unit of time. The fraction unbound is free concentration divided by total concentration. One may read the bioavailability as dose-corrected exposure relative to a reference, in per cent. With `Cc1cc(C2CCCCN2)cc(F)c1-c1cc2c(-c3cnn(C)c3)n[nH]c2cn1` (configuration not stated), the AUC at 24 h in data set [4] was 7.84 µM·h; in [8], 1.46 µM·h. The molecule also had a Vdss in data set [5] of 4.6 L/kg. The half-life in [6] is 8.9 h. Besides, the figures for the clearance in data set [7] and in [9] were 9 mL/min/kg and 80 mL/min/kg, respectively. In data set [10], this molecule displayed a fraction unbound of 0.5. Also, the Papp A→B at 2 h, 50 µM in data set [11] turned out to be 0.4 ×10⁻⁶ cm/s. Moreover, the Ki in [1] amounted to 4.6 nM. Moreover, the IC50 in data set [2] came to 138 nM. In [3], the CLint scaled at 1 µM is below 8.33 mL/min/kg. This molecule displayed a bioavailability in [12] of 55%.
Turning to `CCNCc1cc(C)c(-c2cc3c(-c4cnn(C)c4)n[nH]c3cn2)c(F)c1`, the AUC at 24 h in [4] worked out at 1.64 µM·h; in data set [8], 0.761 µM·h. This molecule showed a Vdss in data set [5] of 3.9 L/kg. In [6], the half-life is 6.3 h. In addition, the clearance in data set [7] is 11 mL/min/kg; in data set [9], 102 mL/min/kg. The fraction unbound in data set [10] turned out to be 0.61. Moreover, the Papp A→B at 2 h, 50 µM in data set [11] is 1.4 ×10⁻⁶ cm/s. Besides, the Ki in data set [1] turned out to be 5 nM. Further, in data set [2], the IC50 turned out to be 137 nM. Moreover, the CLint scaled at 1 µM in [3] was below 8.33 mL/min/kg. In [12], this molecule had a bioavailability of 16%.
With `COc1cccc(F)c1-c1ccc2[nH]nc(-c3ccc(N4CCN(C)CC4)cc3)c2n1`, in data set [1], the Ki was determined as 3 nM. Besides, in data set [2], the IC50 was 395 nM. Moreover, the CLint scaled at 1 µM in [3] is above 18.3 mL/min/kg.
In the same order, the values of `COc1cccc(F)c1-c1ncc2[nH]nc(-c3cnn(C)c3)c2n1` are 12 nM, 640 nM and 11.7 mL/min/kg.
In the same order, the values of `COc1cccc(F)c1-c1ncc2[nH]nc(-c3ccc(N4CCN(C)CC4)cc3)c2n1` are 2.5 nM, 258 nM and above 18.3 mL/min/kg.
In the case of `COc1cccc(F)c1-c1cc2c(-c3ccc(N4CCN(C)CC4)cc3)n[nH]c2cn1`, the Ki in [1] is below 1 nM. For the same molecule, the IC50 in data set [2] amounted to 144 nM. The CLint scaled at 1 µM in data set [3] was 18.3 mL/min/kg.
As to `CNC(C)c1cc(C)c(-c2cc3c(-c4cnn(C)c4)n[nH]c3cn2)c(F)c1` (configuration not stated), the AUC at 24 h in [4] turned out to be 3.93 µM·h; in data set [8], 0.799 µM·h. The same molecule had a Vdss in [5] of 7.6 L/kg. In data set [6], this molecule showed a half-life of 8.6 h. Also, the clearance is 18.3 mL/min/kg in data set [7] and 93.3 mL/min/kg in data set [9]. The molecule further came in with a fraction unbound in [10] of 0.49. Moreover, in data set [11], the Papp A→B at 2 h, 50 µM amounted to 0.2 ×10⁻⁶ cm/s. Also, the Ki in data set [1] was 4 nM. The IC50 in [2] stood at 94 nM. In addition, in data set [3], the CLint scaled at 1 µM was below 8.33 mL/min/kg. In data set [12], this molecule displayed a bioavailability of 50%.
